Assay results: patent US9914707B2, “Naphthylamide compound, preparation method and use thereof” (SHANGHAI INSTITUTE OF MATERIA MEDICA, CHINESE ACADEMY OF …, priority 2014, dated 2018)

System: VEGF-induced human umbilical vein endothelial cells (HUVEC) proliferation
Test: VEGF-induced human umbilical vein endothelial cells (HUVEC) proliferation (SRB)
Format: cell-based
Conditions: for cell activity compared with positive control compound ABT869: VEGF-induced HUVEC proliferation
Procedure: 5000-8000 primary HUVEC cells before 5-15 doublings were seeded to each well of 96-well plate and each well contained 90 μl. The cells were cultured overnight and then starved with 90 μl/well serum-free basal culture medium for 24 h. Then 10 μl different concentration of compound was added to each well. Five concentrations were set and each concentration had 3 wells. After 2 h, 100 ng/mL of VEGF growth-stimulating factor was added. After 48 h, the medium was discarded, the cells were fixed with pre-cooled 10% TCA at 4° C. for 1 h, then washed with distilled water five times and dried in air. Then 100 μl of 4 mg/ml of sulforodamine B (SRB) solution prepared from 1% acetic acid was added to each well to dye 15 minutes at room temperature. The staining solution was discarded and each well was washed with 1% acetic acid five times and then dried in air. Finally, each well was added with 150 μl Tris-HCl solution (10 mM Tris, pH 10.0) and absorbance OD values at 560 nm were measured by microplate reader. Inhibition rate of the compound on HUVEC cell proliferation was measured to reflect VEGF-mediated proliferation inhibition effect of compound.
Inhibition rate of the compound was obtained by the following formula: […]
IC50 values were calculated by inhibition curves with four parameters fitting.

SMILES | IC50 (Homo sapiens, primary HUVEC, 100 ng/mL VEGF, 48 h, SRB, read-out: Half inhibitory concentration for VEGF-induced HUVEC proliferation, IC50) | cell activity compared with positive control compound ABT869
Cc1ccc(F)c(NC(=O)Nc2ccc(-c3cccc4[nH]nc(N)c34)cc2)c1 [ABT869, reference compound] | 2.32 nM | –
Cc1ccc(NC(=O)c2cccc3cc(-c4cccc5[nH]nc(N)c45)ccc23)cc1 [Compound I-8, 6-(3-amino-1H-indazol-4-yl)-N-(p-methylphenyl)-1-naphthalenecarboxamide] | – | stronger than that of positive control compound ABT869
CCc1cccc(NC(=O)c2cccc3cc(-c4cccc5[nH]nc(N)c45)ccc23)c1 [Compound I-9, 6-(3-amino-1H-indazol-4-yl)-N-(3-ethylphenyl)-1-naphthalenecarboxamide] | – | stronger than that of positive control compound ABT869
Nc1n[nH]c2cccc(-c3ccc4c(C(=O)Nc5cc(F)cc(F)c5)cccc4c3)c12 [Compound I-14, 6-(3-amino-1H-indazol-4-yl)-N-(3,5-difluorophenyl)-1-naphthalenecarboxamide] | – | stronger than that of positive control compound ABT869
Cc1cc(NC(=O)c2cccc3cc(-c4cccc5[nH]nc(N)c45)ccc23)ccc1F [Compound I-21, 6-(3-amino-1H-indazol-4-yl)-N-(4-fluoro-3-methylphenyl)-1-naphthalenecarboxamide] | – | stronger than that of positive control compound ABT869
